One compound from patent US8921270B2, “Method for pre-emergent weed control using triazine-based herbicide” (Amvac Chemical Corporation, priority 2011, dated 2014) can be followed below.

The test system of series [1] is corn. The conditions noted are these: in vivo. The protocol: Several scientific and replicated field research trials were conducted in multiple locations to evaluate weed control and crop tolerance of herbicide compositions containing about 80% by weight of […] active ingredient in the form of a water dispersible granule (WDG). The herbicide compositions were applied to the soil surface with or without weeds present at specific intervals i) before planting ([…]) prior to planting and incorporated into the soil ([…] incorporated), and iii) after planting of the corn, but prior to emergence (preemergence). Small plot research trials were conducted using a statistical design known as Randomized Complete Block Design (RCBD), which assumes that a population of experimental units can be divided into a number of relatively homogeneous subpopulations or blocks. […] In the analysis, the variation among blocks can be partitioned out of the experimental error (MSE), thereby reducing this quantity and increasing the power of the test. […] Crop tolerance was evaluated at intervals of 7 to 14, 21 to 28, and 42 to 56 days after corn emergence in these trials. […] Crop tolerance was evaluated at intervals of 23, 33, 41 and 56 days after corn emergence in these trials. […] Corn injury (height of corn, number of plants emerged) was measured as visual injury (% injury) at three different times during the season. […]

Series [2] relates to Green Foxtail. Nature of the series: Weed control field trial, York, Nebr., medium textured soil (Example 11). It is filed as in vivo. Particulars: PRE; 4 weeks after application. The protocol: (§1) Several scientific and replicated field research trials were conducted in multiple locations to evaluate weed control and crop tolerance of herbicide compositions containing about 80% by weight of ametryn active ingredient in the form of a water dispersible granule (WDG). The herbicide compositions were applied to the soil surface with or without weeds present at specific intervals i) before planting (preplant), ii) prior to planting and incorporated into the soil (preplant incorporated), and iii) after planting of the corn, but prior to emergence (preemergence).
(§2) Small plot research trials were conducted using a statistical design known as Randomized Complete Block Design (RCBD), which assumes that a population of experimental units can be divided into a number of relatively homogeneous subpopulations or blocks. The treatments are then randomly assigned to experimental units such that each treatment occurs equally often (usually once) in each block—i.e., each block contains all treatments. Blocks usually represent levels of naturally occurring differences or sources of variation that are unrelated to the treatments. In the analysis, the variation among blocks can be partitioned out of the experimental error (MSE), thereby reducing this quantity and increasing the power of the test. See, Clewer, A. G., and D. H. Scarisbrick. 2001. Practical statistics and experimental design for plant and crop science. John Wiley & Sons Ltd., New York. crop science. […]
(§3) Efficacy on weeds and crop tolerance evaluations were conducted at specified intervals for each trial. […] Crop tolerance was evaluated at intervals of 7 to 14, 21 to 28, and 42 to 56 days after corn emergence in these trials. […] The efficacy of ametryn at a rate of 0.8, 1.2, 1.6 and 2.4 lbs ai/a applied 7 to 14 days preplant was evaluated on grass and broadleaf weeds at intervals of 7 to 14, 21 to 28, and 42 to 56 days after corn emergence. […] In an additional trial, efficacy of ametryn at rates of 1.2, 1.6 and 2.4 lb ai/a applied PRE was evaluated on grass and broadleaf weeds at the same intervals as the earlier trials. […]

Series [3] has as its system Waterhemp. The series is described as above. The conditions noted are these: PRE; 4 weeks after application. Type of series: in vivo. The protocol:
as §1, §2, §3

For series [4], the system named is corn. The conditions noted are these: in vivo. The protocol:
as §1
Small plot research trials were conducted using a statistical design known as Randomized Complete Block Design (RCBD), which assumes that a population of experimental units can be divided into a number of relatively homogeneous subpopulations or blocks. […] In the analysis, the variation among blocks can be partitioned out of the experimental error (MSE), thereby reducing this quantity and increasing the power of the test. […]
Efficacy on weeds and crop tolerance evaluations were conducted at specified intervals for each trial. […] Crop tolerance was evaluated at intervals of 7 to 14, 21 to 28, and 42 to 56 days after corn emergence in these trials. […] In an additional trial, efficacy of ametryn at rates of 1.2, 1.6 and 2.4 lb ai/a applied PRE was evaluated on grass and broadleaf weeds at the same intervals as the earlier trials. […]
This is another data set of the same source.

Series [5] concerns Giant Foxtail. Nature of the series: Weed control field trial, Geneva, Minn., medium textured soil (Example 10). Type of series: in vivo. The conditions noted are these: PRE; 32 days after application. The protocol:
as §1
(§4) Small plot research trials were conducted using a statistical design known as Randomized Complete Block Design (RCBD), which assumes that a population of experimental units can be divided into a number of relatively homogeneous subpopulations or blocks. The treatments are then randomly assigned to experimental units such that each treatment occurs equally often (usually once) in each block—i.e., each block contains all treatments. Blocks usually represent levels of naturally occurring differences or sources of variation that are unrelated to the treatments. In the analysis, the variation among blocks can be partitioned out of the experimental error (MSE), thereby reducing this quantity and increasing the power of the test. See, Clewer, A. G., and D. H. Scarisbrick. 2001. Practical statistics and experimental design for plant and crop science. John Wiley & Sons Ltd., New York. crop science. Treatment size was typically 4 rows of corn on 30-inch row spacing×30 feet long replicated 3 to 4 times. Preplant, preplant incorporated (PPI), or preemergence (PRE) treatments were uniformly applied with a hand-held backpack sprayer pressurized with compressed air or carbon dioxide (CO2) as the propellant to simulate commercial scale application. Treatments were applied using flat fan nozzle or spray nozzles at from 30 to 35 pounds per square inch (psi) delivering from 15 to 20 gallons of finished spray solution per acre.
as §3

The subject of series [6] is Velvetleaf. Described as above. It is filed as in vivo. The conditions noted are these: PRE; 32 days after application. The protocol:
as §1, §4, §3

The test system of series [7] is Waterhemp. The series is described as above. Particulars: PRE; 60 days after application. It is filed as in vivo. The protocol:
as §1, §4, §3

The test system of series [8] is Lambsquarters. The series is described as above. The conditions noted are these: PRE; 32 days after application. It is filed as in vivo. The protocol: as §1, §4, §3

On to `CCNc1nc(NC(C)C)nc(SC)n1` [ametryn, 2-ethylamino-4-isopropylamino-6-methylthio-s-triazine], for which the “Corn injury (visual injury)” value in series [1] is on record as “No injury”. In addition, the Weed control result in series [2] is on record as “good control”; in series [3], “good control”; in series [5], “good control”; in series [6], “good control”; in series [7], “moderate control”; in series [8], “good control”. In addition, in series [4], the Corn injury entry was “No injury”.
